Data as given in the supplement of paper PMC10307832.

Key:
R406 + AZD7762 = compound: COc1cc(Nc2ncc(F)c(Nc3ccc4c(n3)NC(=O)C(C)(C)O4)n2)cc(OC)c1OC [R406] + NC(=O)Nc1cc(-c2cccc(F)c2)sc1C(=O)N[C@H]1CCCNC1 [AZD7762] (partner 0.2 µM); test: relative viability (nuclei count vs DMSO), 5 days (fraction); higher = more cells survive
Outline: (§1)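 Cells from lung cancer lines were seeded into 1536-well plates and, one day later, dosed by pin tool. Treatments were either a single drug or a fixed dose of an anchor drug with five library-drug doses (not always all listed) in √10 steps. After 5 days, nuclei were stained in a one-step fixation (final 0.05% Triton X-100, 1% formaldehyde, 1 ug/ml Hoechst) and counted on 4× images, and relative viability is the treated-to-vehicle nuclei ratio, as the median of duplicate plates.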

R406 + Trametinib = compound: COc1cc(Nc2ncc(F)c(Nc3ccc4c(n3)NC(=O)C(C)(C)O4)n2)cc(OC)c1OC [R406] + CC(=O)Nc1cccc(-n2c(=O)n(C3CC3)c(=O)c3c(Nc4ccc(I)cc4F)n(C)c(=O)c(C)c32)c1 [Trametinib] (partner 0.02 µM); test: as above
Outline: as §1

Row | Cell Line | relative viability (R406 + AZD7762; first compound 0.08 µM) | relative viability (R406 + AZD7762; first compound 0.253 µM) | relative viability (R406 + AZD7762; first compound 0.8 µM) | relative viability (R406 + AZD7762; first compound 2.53 µM) | relative viability (R406 + AZD7762; first compound 8 µM) | relative viability (R406 + Trametinib; first compound 0.08 µM) | relative viability (R406 + Trametinib; first compound 0.253 µM) | relative viability (R406 + Trametinib; first compound 0.8 µM) | relative viability (R406 + Trametinib; first compound 2.53 µM) | relative viability (R406 + Trametinib; first compound 8 µM)
1 | 201T | 0.615 | 0.685 | 0.664 | 0.762 | 0.836 | 0.696 | 0.72 | 0.726 | 0.674 | 0.679
2 | A-427 | 0.832 | 0.795 | 0.86 | 0.663 | 0.43 | 0.755 | 0.745 | 0.857 | 0.62 | 0.541
3 | ABC-1 | 0.912 | 0.769 | 0.865 | 0.858 | 0.669 |  |  |  |  | 
4 | BEN | 0.816 | 0.814 | 0.796 | 0.828 | 0.523 | 0.974 | 0.992 | 1.24 | 1.17 | 0.897
5 | CAL-12T | 0.531 | 0.641 | 0.695 | 0.714 | 0.637 | 0.343 | 0.351 | 0.378 | 0.312 | 0.175
6 | COR-L23 |  |  |  |  |  | 0.627 | 0.669 | 0.682 | 0.217 | 0.338
7 | COR-L 105 |  |  |  |  |  | 0.444 | 0.497 | 0.432 | 0.459 | 0.395
8 | ChaGo-K-1 | 0.799 | 0.957 | 0.999 | 0.873 | 0.744 | 0.853 | 0.962 | 0.982 | 0.844 | 0.763
9 | EKVX | 0.679 | 0.832 | 0.847 | 0.647 | 0.521 | 0.405 | 0.383 | 0.348 | 0.364 | 0.264
10 | EMC-BAC-2 | 1.05 | 1.26 | 1.17 | 1.04 | 0.391 | 0.907 | 0.956 | 0.804 | 1.06 | 0.917
11 | EPLC-272H | 0.21 | 0.252 | 0.337 | 0.199 | 0.15 | 0.324 | 0.333 | 0.305 | 0.166 | 0.21
12 | H3255 | 0.923 | 0.983 | 0.823 | 0.774 | 0.747 | 0.549 | 0.693 | 0.563 | 0.577 | 0.487
13 | HARA | 0.272 | 0.469 | 0.257 | 0.306 | 0.305 | 0.745 | 0.629 | 0.878 | 0.794 | 0.13
14 | HCC-15 | 1.35 | 1.33 | 1.38 | 1.19 | 0.751 | 0.392 | 0.385 | 0.406 | 0.415 | 0.331
15 | HCC-44 | 0.974 | 1.01 | 0.995 | 1.03 | 1.18 | 1.04 | 1.1 | 1.12 | 0.984 | 0.966
16 | HCC-78 | 0.571 | 0.861 | 0.623 | 0.619 | 0.449 | 0.757 | 0.687 | 0.749 | 0.504 | 0.424
17 | HCC-366 | 0.269 | 0.294 | 0.368 | 0.267 | 0.243 | 0.342 | 0.411 | 0.42 | 0.234 | 0.0517
18 | HCC-827 | 0.336 | 0.239 | 0.234 | 0.176 | 0.134 | 0.564 | 0.578 | 0.517 | 0.399 | 0.383
19 | HOP-62 | 0.76 | 0.813 | 0.793 | 0.531 | 0.585 | 0.379 | 0.388 | 0.427 | 0.37 | 0.339

Row | Cell Line | relative viability (R406 + AZD7762; first compound 0.08 µM) | relative viability (R406 + AZD7762; first compound 0.253 µM) | relative viability (R406 + AZD7762; first compound 0.8 µM) | relative viability (R406 + AZD7762; first compound 2.53 µM) | relative viability (R406 + AZD7762; first compound 8 µM) | relative viability (R406 + Trametinib; first compound 0.08 µM) | relative viability (R406 + Trametinib; first compound 0.253 µM) | relative viability (R406 + Trametinib; first compound 0.8 µM) | relative viability (R406 + Trametinib; first compound 2.53 µM) | relative viability (R406 + Trametinib; first compound 8 µM)
20 | LC-2-ad | 0.856 | 0.898 | 0.89 | 0.827 | 0.343 | 0.912 | 0.907 | 0.971 | 0.465 | 0.334
21 | LCLC-97TM1 | 0.207 | 0.313 | 0.327 | 0.164 | 0.219 | 0.218 | 0.23 | 0.226 | 0.174 | 0.194
22 | LCLC-103H | 0.662 | 0.844 | 0.813 | 0.747 | 0.569 | 0.66 | 0.675 | 0.672 | 0.691 | 0.604
23 | LK-2 | 0.373 | 0.407 | 0.333 | 0.354 | 0.104 | 0.675 | 1 | 0.718 | 0.706 | 0.447
24 | LOU-NH91 | 0.718 | 0.769 | 0.706 | 0.574 | 0.473 | 0.804 | 0.8 | 0.759 | 0.621 | 0.549
25 | LU99A | 0.317 | 0.358 | 0.39 | 0.413 | 0.283 | 0.532 | 0.522 | 0.56 | 0.458 | 0.358
26 | LXF-289 | 1.03 | 1.19 | 1.11 | 0.88 | 0.762 | 0.675 | 0.694 | 0.68 | 0.67 | 0.672
27 | NCI-H23 | 0.215 | 0.265 | 0.283 | 0.25 | 0.269 | 0.288 | 0.376 | 0.444 | 0.399 | 0.128
28 | NCI-H322M | 0.453 | 0.54 | 0.588 | 0.36 | 0.423 | 0.515 | 0.532 | 0.452 | 0.475 | 0.421
29 | NCI-H358 | 0.502 | 0.472 | 0.509 | 0.272 | 0.217 | 0.131 | 0.144 | 0.14 | 0.0877 | 0.103
30 | NCI-H441 | 1.03 | 1.03 | 1.26 | 0.953 | 0.958 | 0.462 | 0.452 | 0.539 | 0.283 | 0.184
31 | NCI-H460 | 0.651 | 0.829 | 0.69 | 0.61 | 0.762 | 0.0847 | 0.4 | 0.258 | 0.0114 | 0.0382
32 | NCI-H520 |  |  |  |  |  | 0.665 | 0.792 | 0.935 | 0.258 | 0.124
33 | NCI-H522 | 0.914 | 0.921 | 0.813 | 0.823 | 0.765 | 0.779 | 0.917 | 0.787 | 0.746 | 0.599
34 | NCI-H596 | 1.08 | 1.1 | 0.977 | 0.825 | 0.836 | 0.814 | 0.909 | 0.775 | 0.72 | 0.196
35 | NCI-H647 | 0.373 | 0.419 | 0.467 | 0.413 | 0.29 | 0.534 | 0.359 | 0.6 | 0.239 | 0.0884
36 | NCI-H650 | 0.822 | 1.16 | 1.02 | 0.593 | 0.788 | 0.949 | 1.06 | 1 | 0.818 | 0.819
37 | NCI-H661 |  |  |  |  |  | 0.561 | 0.604 | 0.57 | 0.489 | 0.366
38 | NCI-H727 | 0.675 | 0.666 | 0.535 | 0.681 | 0.747 | 0.416 | 0.344 | 0.453 | 0.406 | 0.372

Row | Cell Line | relative viability (R406 + AZD7762; first compound 0.08 µM) | relative viability (R406 + AZD7762; first compound 0.253 µM) | relative viability (R406 + AZD7762; first compound 0.8 µM) | relative viability (R406 + AZD7762; first compound 2.53 µM) | relative viability (R406 + AZD7762; first compound 8 µM) | relative viability (R406 + Trametinib; first compound 0.08 µM) | relative viability (R406 + Trametinib; first compound 0.253 µM) | relative viability (R406 + Trametinib; first compound 0.8 µM) | relative viability (R406 + Trametinib; first compound 2.53 µM) | relative viability (R406 + Trametinib; first compound 8 µM)
39 | NCI-H838 | 0.915 | 1.02 | 1.04 | 0.853 | 0.741 | 0.526 | 0.598 | 0.684 | 0.256 | 0.115
40 | NCI-H1355 | 0.799 | 0.758 | 0.747 | 0.555 | 0.581 | 0.456 | 0.45 | 0.406 | 0.384 | 0.327
41 | NCI-H1395 | 0.427 | 0.354 | 0.351 | 0.417 | 0.36 | 0.979 | 1.02 | 0.998 | 0.687 | 0.568
42 | NCI-H1437 | 1.04 | 1.19 | 1.13 | 1.05 | 1.05 | 0.547 | 0.657 | 0.637 | 0.487 | 0.295
43 | NCI-H1648 | 0.719 | 0.618 | 0.67 | 0.554 | 0.633 | 0.564 | 0.432 | 0.557 | 0.463 | 0.4
44 | NCI-H1650 |  |  |  |  |  | 0.604 | 0.585 | 0.633 | 0.054 | 0.124
45 | NCI-H1651 | 0.432 | 0.544 | 0.513 | 0.396 | 0.446 | 0.75 | 0.821 | 0.843 | 0.852 | 0.831
46 | NCI-H1666 | 1.12 | 0.937 | 0.893 | 0.892 | 0.773 | 0.901 | 0.866 | 0.943 | 0.955 | 0.679
47 | NCI-H1703 | 0.144 | 0.137 | 0.115 | 0.105 | 0.112 |  |  |  |  | 
48 | NCI-H1734 | 0.58 | 0.582 | 0.679 | 0.228 | 0.313 | 0.637 | 0.685 | 0.715 | 0.575 | 0.383
49 | NCI-H1755 | 0.382 | 0.493 | 0.369 | 0.335 | 0.253 | 0.679 | 0.788 | 0.714 | 0.704 | 0.465
50 | NCI-H1792 | 0.75 | 0.615 | 0.908 | 0.283 | 0.378 | 0.428 | 0.443 | 0.427 | 0.178 | 0.0999
51 | NCI-H1793 | 0.471 | 0.368 | 0.415 | 0.283 | 0.413 | 0.448 | 0.537 | 0.411 | 0.422 | 0.16
52 | NCI-H2009 |  |  |  |  |  | 0.275 | 0.275 | 0.323 | 0.213 | 0.136
53 | NCI-H2023 |  |  |  |  |  | 0.499 | 0.562 | 0.582 | 0.286 | 0.129
54 | NCI-H2228 |  |  |  |  |  | 0.501 | 0.503 | 0.731 | 0.0769 | 0.432
55 | SK-LU-1 |  |  |  |  |  | 0.535 | 0.531 | 0.55 | 0.157 | 0.195
56 | SK-MES-1 |  |  |  |  |  | 0.561 | 0.531 | 0.553 | 0.304 | 0.218
57 | SW 1573 |  |  |  |  |  | 0.548 | 0.614 | 0.628 | 0.443 | 0.193
